Assay results from patent publication US20180021417A1, “ADJUVANT COMPOSITIONS COMPRISING A NON-IONIC ISOTONICITY AGENT” (GLAXOSMITHKLINE BIOLOGICALS, SA, priority 2009, published 2018).

Test system: chicken Red Blood cells (RBC)
Experiment: QS21 lytic activity, haemolysis assay (limit test)
Type: cell-based
Conditions: example QS21 curve, 150 mM sodium chloride buffer; OD 0.12
Description: QS21 is known to lyse red blood cells (RBC).
QS21 lytic activity was measured by a haemolysis assay using chicken Red Blood cells (RBC). RBC were centrifuged at 550 g at 4° C. Supernatant was discarded. The pellet was carefully resuspended in PBS buffer to reach the initial volume and the same operation was repeated until supernatant was no longer red (generally 3 times). The pellet was stored at 4° C. for 3 to 4 days maximum if not used directly (and washed again the day it is used) or was diluted around 10 times in buffer if used the same day.
A QS21 dose range curve was prepared in ASA buffer (in salt or in sorbitol buffer following the ASA sample tested) extemporaneously and the adjuvant samples (containing a 50 μg or 90 μg equivalent of QS21 meaning the equivalent of 500 μl or 900 μl ASA) were prepared. Final volume was adjusted to 900 μl in standards and samples with adequate buffer (containing or not sorbitol as a function of the buffer of the sample tested). Due to its opalescence, ASA interferes in optical density (OD). […] Optical density at 540 nm was measured after centrifugation. […]
1. Limit of detection (LOD) was defined as the lowest concentration of QS21 leading to an OD: • Higher than the base level (OD>0.1) • Around three times higher than OD's buffer (the “o μg” QS21) • In the ascendant part of the curve • Determined for each test. […]

QS21
Limit of Detection (lowest QS21 amount giving lytic OD): 0.9 µg
